According to publication PMC6736568, “Discovery of Novel Anti-cryptosporidial Activities From Natural Products by in vitro High-Throughput Phenotypic Screening” (Frontiers in Microbiology, 2019):
Where a name gives a salt, the structure may show the parent alone. Read-outs that look alike come from different tables or passages of the source.

Assays:
Cryptosporidium parvum = assay: qRT-PCR assay of the growth of C. parvum in vitro in HCT-8 host cells (primary and secondary screening, EC50); type: cell-based; conditions: Cryptosporidium parvum, HCT-8; for inhibition at 10 µM: primary screening at 10 uM, read-out: Inhibition (%)
[1] = primary screening at 10 uM, treated vs control

Compound	cytotoxicity at 10 µM (in vitro) [%]	inhibition at 10 µM (Cryptosporidium parvum) [%]	Hs18S ΔCT (HCT-8 host cells (Hs18S); [1])	cytotoxicity at 41 h, 10 µM (in vitro) [%]	cytotoxicity at 41 h, 10 µM (in vitro; human) [%]	Hs18S ΔCT (HCT-8 host cells (Hs18S); human, 41 h, 10 μM)	inhibition at 3.3 µM (Cryptosporidium parvum; secondary screening at 3.3 uM, read-out: % Inhibition (3.3 uM)) [%]
CCN1C[C@]2(COC)[C@H](O)C[C@H](OC)[C@@]34[C@@H]5C[C@@]6(O)[C@H](OC(=O)c7ccccc7)[C@@H]5[C@@](OC(C)=O)([C@@H]([C@H](OC)[C@H]23)[C@@H]14)[C@@H](O)[C@@H]6OC [ACONITINE]	-11.7	2.84	-0.16				
CC(=O)O[C@@H]1C[C@@]23C[C@@]24CC[C@H](O[C@@H]2OC[C@@H](O)[C@H](O)[C@H]2O)C(C)(C)[C@@H]4CC[C@H]3[C@]2(C)C[C@@H]3O[C@]4(C[C@@H](C)[C@@H]3[C@@]12C)O[C@H](O)[C@@]1(C)O[C@@H]41 [ACTEIN]		3.9	-0.41	-33.3			
CCCCC[C@H](CC(=O)NO)C(=O)N[C@H](C(=O)N1CCC[C@H]1CO)C(C)C [ACTINONIN]		31.3			-4.6	-0.06	
Nc1ncnc2nc[nH]c12 [ADENINE]		-9.27	-0.08		-5.9		
Nc1ncnc2c1ncn2[C@@H]1O[C@H](COP(=O)(O)O)[C@@H](O)[C@H]1O [ADENOSINE PHOSPHATE]		23.5			-11.8	-0.16	
Nc1ncnc2c1ncn2[C@@H]1O[C@H](CO)[C@@H](O)[C@H]1O [ADENOSINE]		-13.4			1.5	0.02	
OC[C@@H](O)[C@@H](O)[C@@H](O)CO [ADONITOL]		6.19			16.4	0.26	
N=C(N)NCCCCN [AGMATINE SULFATE]	13.5	-2.93	0.21				
CC[C@H]1[C@@H]2C[C@H]3[C@@H]4N(C)c5ccccc5[C@]45C[C@@H]([C@H]2[C@H]5O)N3[C@@H]1O [AJMALINE]	6.9	-1.24	0.10				
O=C1c2ccccc2C(=O)c2c1ccc(O)c2O [ALIZARIN]	-9.1	-42.4	-0.13				
NC(=O)NC1NC(=O)NC1=O (stereo not shown) [ALLANTOIN]		8.13			-16.1	-0.22	
CC(=O)[C@H]1CC[C@H]2[C@@H]3CC[C@H]4C[C@H](O)CC[C@]4(C)[C@H]3CC[C@]12C [ALLOPREGNANOLONE]	1.3	-52.5	0.02				
C=CCN=C=S [ALLYLISOTHIOCYANATE]		25.7			17.7	0.28	
O=C1c2c(O)cccc2C([C@@H]2O[C@H](CO)[C@@H](O)[C@H](O)[C@H]2O)c2cc(CO)cc(O)c21 (stereo partly shown) [ALOIN]		-0.73			-54.3	-0.63	
C[C@@H]1[C@H](O)[C@@H](C)/C=C/C=C/C=C/C=C/C=C/C=C/C=C/[C@H](O[C@@H]2O[C@H](C)[C@@H](O)[C@H](N)[C@@H]2O)C[C@@H]2O[C@](O)(C[C@@H](O)C[C@@H](O)[C@H](O)CC[C@@H](O)C[C@@H](O)CC(=O)O[C@H]1C)C[C@H](O)[C@H]2C(=O)O [AMPHOTERICIN B]		-4.47			7.1	0.11	
N#C[C@H](O[C@@H]1O[C@H](CO[C@@H]2O[C@H](CO)[C@@H](O)[C@H](O)[C@H]2O)[C@@H](O)[C@H](O)[C@H]1O)c1ccccc1 [AMYGDALIN]	4.8	-15.6	0.07				
CN1CCCCC1c1ccc(-c2cccnc2)nc1 (stereo not shown) [ANABASAMINE HYDROCHLORIDE]	24.3	8.75	0.40				
c1cncc([C@@H]2CCCCN2)c1 [ANABASINE HYDROCHLORIDE]	-5.5	6.88	-0.08				
C=C1CC[C@@H]2[C@](C)(CO)[C@H](O)CC[C@@]2(C)[C@@H]1C/C=C1/C(=O)OC[C@H]1O [ANDROGRAPHOLIDE]		38.8			5.3	0.08	
C/C=C/c1ccc(OC)cc1 [ANETHOLE]		-5.3			-5.8	-0.08	
COc1ccc([C@@H](C)C(=O)c2ccc(O)cc2O)cc1 [ANGOLENSIN (R)]		-26.9			-12.5	-0.17	
COc1ccc2c(=O)c(CC(=O)O)coc2c1 [ANHYDROBRAZILIC ACID]		11.9			-0.5	-0.01	
COc1cc(O)cc(OC)c1OC [ANTIAROL]		8.48			6.9	0.10	
CCCCCC[C@H]1C(=O)O[C@H](C)[C@H](NC(=O)c2cccc(NC=O)c2O)C(=O)O[C@@H](C)[C@@H]1OC(=O)CC(C)C [ANTIMYCIN A, ANTIMYCIN A (A1 shown)]	7.7	10.9	0.12				

Compound	cytotoxicity at 10 µM (in vitro) [%]	inhibition at 10 µM (Cryptosporidium parvum) [%]	Hs18S ΔCT (HCT-8 host cells (Hs18S); [1])	cytotoxicity at 41 h, 10 µM (in vitro) [%]	cytotoxicity at 41 h, 10 µM (in vitro; human) [%]	Hs18S ΔCT (HCT-8 host cells (Hs18S); human, 41 h, 10 μM)	inhibition at 3.3 µM (Cryptosporidium parvum; secondary screening at 3.3 uM, read-out: % Inhibition (3.3 uM)) [%]
O=C(O)C1CC([C@@H]2CCCCN2)CN2CCCCC12 (stereo partly shown) [APHYLLIC ACID]		-28.5			16.1	0.25	
COc1ccc(-c2cc(=O)c3c(O)cc(OC)cc3o2)cc1 [APIGENIN DIMETHYL ETHER]	11.3	-37.8	0.17				
O=c1cc(-c2ccc(O)cc2)oc2cc(O)cc(O)c12 [APIGENIN]		-44.6			3.9	0.06	
OC[C@H]1O[C@@H](Oc2ccc(O)cc2)[C@H](O)[C@@H](O)[C@@H]1O [ARBUTIN]		16.1			0.5	0.01	
COC(=O)C1=CCCN(C)C1 [ARECOLINE HYDROBROMIDE]	-38.7	-6.72	-0.47				
COc1cccc2c1cc([N+](=O)[O-])c1c(C(=O)O)cc3c(c12)OCO3 [ARISTOLOCHIC ACID]		8.39	-0.03	-1.8			
C[C@@H]1CC[C@H]2[C@@H](C)C(=O)O[C@@H]3O[C@@]4(C)CC[C@@H]1[C@]32OO4 [ARTEMISININ]		16.7			0	0.00	
CCCCCC(=O)Cc1cc(O)cc(O)c1C(=O)Oc1cc(CC(=O)CCCCC)c(C(=O)O)c(OC)c1 [ARTHONIOIC ACID]		-25.4			1.1	0.02	
O=C1O[C@H]([C@@H](O)CO)C(O)=C1O [ASCORBIC ACID]		12			26.2	0.44	
C[C@H]1[C@H](C)CC[C@]2(C(=O)O)CC[C@]3(C)C(=CC[C@@H]4[C@@]5(C)C[C@@H](O)[C@H](O)[C@@](C)(CO)[C@@H]5CC[C@]43C)[C@H]12 [ASIATIC ACID]		25.1			-22.7	-0.29	
CC1=C(/C=C/C(C)=C/C=C/C(C)=C/C=C/C=C(C)/C=C/C=C(C)/C=C/C2=C(C)C(=O)[C@@H](O)CC2(C)C)C(C)(C)C[C@H](O)C1=O [ASTAXANTHIN]		45.1			-34.8	-0.43	
COC(=O)c1c(C)cc(OC(=O)c2c(C)cc(O)c(C=O)c2O)c(C)c1O [ATRANORIN]		-45.9			50.7	1.02	
CN1[C@@H]2CC[C@H]1C[C@@H](OC(=O)C(CO)c1ccccc1)C2 (stereo partly shown) [ATROPINE SULFATE]	16.3	3.7	0.26				
C#CCCCCCCCCCCCC(O)CC(O)COC(C)=O (stereo not shown) [AVOCADYNE ACETATE]		15.8			12.2	0.19	
C=CCCCCCCCCCCCC(O)CC(O)COC(C)=O (stereo not shown) [AVOCATIN A]		46			-0.1	0.00	
C/C=C(\C)C(=O)O[C@H]1C[C@@H](OC(C)=O)[C@@]2(C(=O)OC)CO[C@H]3[C@@H](O)[C@@](C)([C@]45O[C@@]4(C)[C@H]4C[C@@H]5O[C@@H]5OC=C[C@@]54O)[C@H]4[C@]1(CO[C@]4(O)C(=O)OC)[C@@H]32 [AZADIRACHTIN]		23.7			-0.1	0.00	
O=C(O)CCCCCCCC(=O)O [AZELAIC ACID]		6.72			1.8	0.03	
CC(=O)O[C@H]1C(=O)[C@@]2(C)[C@H]([C@H](OC(=O)c3ccccc3)[C@]3(O)C[C@H](O)C(C)=C1C3(C)C)[C@]1(OC(C)=O)CO[C@@H]1C[C@@H]2O [BACCATIN III]	5.2	1.76	0.08				
O=C(O)[C@H]1O[C@@H](Oc2cc3oc(-c4ccccc4)cc(=O)c3c(O)c2O)[C@H](O)[C@@H](O)[C@@H]1O [BAICALIN]		-13	-0.23		-17.1		
CCCCCCCCCCCCCCCCCCOCC(O)CO (stereo not shown) [BATYL ALCOHOL]		41.3			-48	-0.57	
NC[C@H]1O[C@H](O[C@H]2[C@H](O)[C@@H](O[C@H]3O[C@H](CO)[C@@H](O)[C@H](N)[C@H]3O)[C@H](N)C[C@@H]2N)[C@H](N)[C@@H](O)[C@@H]1O [BEKANAMYCIN SULFATE]		4.16			8.7	0.13	
S=C=NCc1ccccc1 [BENZYL ISOTHIOCYANATE]		91.8	0.57		32.8		14
COc1c2ccoc2cc2oc(=O)ccc12 [BERGAPTEN]	4.3	-22.3	0.06				
COc1c(O)cc2c(c1O)[C@@H]1O[C@H](CO)[C@@H](O)[C@H](O)[C@H]1OC2=O [BERGENIN]		36			23.1	0.38	
